Measured values taken from patent publication US8338594B2, “Pyrrolotriazine derivatives useful for treating cancer through inhibition of aurora kinase” (Bayer HealthCare LLC, priority 2005, dated 2012).

Key:
[1] = target: T1, murine Aurora Kinase 1 (mAur1) (Mus musculus, UniProt O70126); assay: murine Aurora Kinase 1 (mAur1) biochemical Scintillation Proximity Assay; conditions: SPA, biotinylated Peptide 830, 1 μM ATP, 12 nM GST-tagged mAur 1 co-expressed with human INCENP
T1 construct: recombinant, GST-tagged mAur 1 (amino acids 67-345) that was co-expressed with human INCENP; GST; made in house
T1 sequence (O70126 67-345): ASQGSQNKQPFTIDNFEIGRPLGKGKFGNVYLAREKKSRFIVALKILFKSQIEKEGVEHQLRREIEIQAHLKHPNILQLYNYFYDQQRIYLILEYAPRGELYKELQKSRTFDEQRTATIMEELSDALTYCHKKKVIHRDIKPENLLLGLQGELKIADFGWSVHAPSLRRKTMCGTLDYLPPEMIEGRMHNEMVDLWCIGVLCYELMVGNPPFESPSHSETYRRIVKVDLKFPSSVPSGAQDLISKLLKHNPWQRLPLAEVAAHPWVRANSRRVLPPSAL
T1 sequence (Q9NQS7 704-918 partner): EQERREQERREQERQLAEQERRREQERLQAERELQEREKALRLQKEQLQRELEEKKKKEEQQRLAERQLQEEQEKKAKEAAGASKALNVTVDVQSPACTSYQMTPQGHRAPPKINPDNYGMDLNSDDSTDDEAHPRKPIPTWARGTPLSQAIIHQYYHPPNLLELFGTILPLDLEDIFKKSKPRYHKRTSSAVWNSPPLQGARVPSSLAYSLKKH
Protocol: (§1) Using a Scintillation Proximity Assay (SPA) format, the murine Aurora Kinase 1 (mAur1) and murine Aurora Kinase 2 (mAur2) biochemical assay measures the ability of mAur2 to phosphorylate the substrate, biotinylated Peptide 830 (DRT, Protein Sciences). Once radiolabeled by the enzyme, the biotinylated substrate is captured on streptavidin-coated SPA beads and the radioactivity, in proximity to the SPA beads, is measured. For the generation of IC50 curves, the reaction was performed in 96-well isoplates (Wallac 1450-514) under the following conditions: a 10 mM stock solution of compound (in 100% dimethylsulfoxide; DMSO) was diluted 10 fold in 100% DMSO. Compounds were then serially diluted, 1:5, for an eight point dose curve, in 100% DMSO. A volume of 1 μL of the diluted compound was added to the reaction buffer that consisted of 25 mM HEPES pH 7.5, 1 mM MnCl2, 1 mM MgCl2, 1 mM DTT, 0.01% Tween20. A mixture with a final concentration per well of 1 μM cold ATP, 0.1 μCi ^33P-ATP (Amersham AH9968) and 1 μM biotinylated Peptide 830 was then added. The reaction was initiated with the addition of either recombinant, GST-tagged mAur 1 (amino acids 67-345) that was co-expressed with human INCENP (amino acids 704-919) (DRT, Protein Sciences) at a final concentration of 12 nM or N-terminal His-tagged mAur2 (amino acids 98-395; DRT, Protein Sciences) at a final concentration of 20 nM. The final reaction volume in each well was 100 μL and the final compound concentration ranged from 10 μM-[…] in 1% DMSO. The reaction mixture was allowed to incubate for 1-2 hours with gentle agitation at 25° C. To terminate the reaction, streptavidin-coated SPA beads (Amersham RPNQ0007; 50 μL of 0.5 mg beads dissolved in 165 mM EDTA) were then added to each well and incubation proceeded for an additional 15 minutes at 25° C. The plate was then centrifuged for ten minutes at 2000 rpm. Phosphorylation of the peptide substrate was measured using a Wallac 1450 Microbeta Plus Liquid Scintillation Counter.

[2] = target: T2, murine Aurora Kinase 2 (mAur2) (Mus musculus, UniProt P97477); assay: murine Aurora Kinase 2 (mAur2) biochemical Scintillation Proximity Assay; conditions: SPA, biotinylated Peptide 830, 1 μM ATP, 20 nM His-tagged mAur2
T2 construct: N-terminal His-tagged mAur2 (amino acids 98-395; DRT, Protein Sciences); His (N); made in house
T2 sequence (P97477 98-395): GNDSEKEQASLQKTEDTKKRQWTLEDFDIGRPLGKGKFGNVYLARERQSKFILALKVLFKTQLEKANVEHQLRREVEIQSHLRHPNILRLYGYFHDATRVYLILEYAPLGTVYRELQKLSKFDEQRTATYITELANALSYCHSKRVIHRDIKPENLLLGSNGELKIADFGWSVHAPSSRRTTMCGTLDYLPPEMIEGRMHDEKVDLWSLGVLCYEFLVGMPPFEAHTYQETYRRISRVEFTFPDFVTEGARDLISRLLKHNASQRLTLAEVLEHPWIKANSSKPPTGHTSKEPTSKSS
Protocol: as §1

In the case of `Nc1ncnn2cc(C(=O)NCC(F)(F)F)c(-c3ccc(Nc4nc5ccccc5[nH]4)cc3)c12` [Example 1, 4-amino-5-[4-(1H-benzimidazol-2-ylamino)phenyl]-N-(2,2,2-trifluoroethyl)pyrrolo[2,1-f][1,2,4]triazine-6-carboxamide], the IC50 [1] is reported as under 100 nM and the IC50 [2] is reported as under 100 nM.

Work on `Nc1ncnn2cc(C(=O)NCC(F)(F)F)c(-c3ccc(Nc4nc5cc(F)cc(F)c5[nH]4)cc3)c12` [Example 6, 4-amino-5-{4-[(5,7-difluoro-1H-benzimidazol-2-yl)amino]phenyl}-N-(2,2,2-trifluoroethyl)pyrrolo[2,1-f][1,2,4]triazine-6-carboxamide] yielded an IC50 [1] of under 100 nM and an IC50 [2] of under 100 nM.

In the case of `COc1ccc2nc(Nc3ccc(-c4c(C(=O)NCC(F)(F)F)cn5ncnc(N)c45)cc3)[nH]c2c1` [Example 8, 4-amino-5-{4-[(6-methoxy-1H-benzimidazol-2-yl)amino]phenyl}-N-(2,2,2-trifluoroethyl)pyrrolo[2,1-f][1,2,4]triazine-6-carboxamide], the IC50 [1] is reported as under 100 nM and the IC50 [2] is reported as under 100 nM.

`Nc1ncnn2cc(C(=O)NCC(F)(F)F)c(-c3ccc(Nc4nc5ccc(Br)cc5[nH]4)cc3)c12` [Example 9, 4-amino-5-{4-[(6-bromo-1H-benzimidazol-2-yl)amino]phenyl}-N-(2,2,2-trifluoroethyl)pyrrolo[2,1-f][1,2,4]triazine-6-carboxamide] showed an IC50 [1] of under 100 nM and an IC50 [2] of under 100 nM.

`Nc1ncnn2cc(C(=O)NCC(F)(F)F)c(-c3ccc(Nc4nc5cc(F)c(F)cc5[nH]4)cc3)c12` [Example 14, 4-amino-5-{4-[(5,6-difluoro-1H-benzimidazol-2-yl)amino]phenyl}-N-(2,2,2-trifluoroethyl)pyrrolo[2,1-f][1,2,4]triazine-6-carboxamide] showed an IC50 [1] of under 100 nM and an IC50 [2] of under 100 nM.

Compound `Nc1ncnn2cc(C(=O)NCC(F)(F)F)c(-c3ccc(Nc4nc5cscc5[nH]4)cc3)c12` [Example 16, 4-amino-5-[4-(1H-thieno[3,4-d]imidazol-2-ylamino)phenyl]-N-(2,2,2-trifluoroethyl)pyrrolo[2,1-f][1,2,4]triazine-6-carboxamide] has an IC50 [1] of under 100 nM and an IC50 [2] of under 100 nM.

For `Cc1cccc2nc(Nc3ccc(-c4c(C(=O)NCC(F)(F)F)cn5ncnc(N)c45)cc3)[nH]c12` [Example 22, 4-amino-5-{4-[(7-methyl-1H-benzimidazol-2-yl)amino]phenyl}-N-(2,2,2-trifluoroethyl)pyrrolo[2,1-f][1,2,4]triazine-6-carboxamide], the IC50 [1] was under 100 nM and the IC50 [2] was under 100 nM.

`Nc1ncnn2cc(C(=O)NCC(F)(F)F)c(-c3ccc(Nc4nc5ccc([N+](=O)[O-])cc5[nH]4)cc3)c12` [Example 23, 4-amino-5-{4-[(6-nitro-1H-benzimidazol-2-yl)amino]phenyl}-N-(2,2,2-trifluoroethyl)pyrrolo[2,1-f][1,2,4]triazine-6-carboxamide] showed an IC50 [1] of under 100 nM and an IC50 [2] of under 100 nM.

With `Nc1ncnn2cc(C(=O)NCC(F)(F)F)c(-c3ccc(Nc4nc5cc(I)cnc5[nH]4)cc3)c12` [Example 25, 4-amino-5-{4-[(6-iodo-3H-imidazo[4,5-b]pyridin-2-yl)amino]phenyl}-N-(2,2,2-trifluoroethyl)pyrrolo[2,1-f][1,2,4]triazine-6-carboxamide] the IC50 [1] was under 100 nM and the IC50 [2] was under 100 nM.

`Nc1ncnn2cc(C(=O)NCC(F)(F)F)c(-c3ccc(Nc4nc5ccc(Cl)nc5[nH]4)cc3)c12` [Example 26, 4-amino-5-{4-[(5-chloro-3H-imidazo[4,5-b]pyridin-2-yl)amino]phenyl}-N-(2,2,2-trifluoroethyl)pyrrolo[2,1-f][1,2,4]triazine-6-carboxamide] showed an IC50 [1] of under 100 nM and an IC50 [2] of under 100 nM.

With `Nc1ncnn2cc(C(=O)NCC(F)(F)F)c(-c3ccc(Nc4nc5ccc(Oc6ccccc6F)c(F)c5[nH]4)cc3)c12` [Example 39, 4-amino-5-(4-{[7-fluoro-6-(2-fluorophenoxy)-1H-benzimidazol-2-yl]amino}phenyl)-N-(2,2,2-trifluoroethyl)pyrrolo[2,1-f][1,2,4]triazine-6-carboxamide] the IC50 [1] was under 100 nM and the IC50 [2] was under 100 nM.

With `Nc1ncnn2cc(C(=O)NCC(F)(F)F)c(-c3ccc(Nc4nc5ccc(Oc6cccc(F)c6)c(F)c5[nH]4)cc3)c12` [Example 40, 4-amino-5-(4-{[7-fluoro-6-(3-fluorophenoxy)-1H-benzimidazol-2-yl]amino}phenyl)-N-(2,2,2-trifluoroethyl)pyrrolo[2,1-f][1,2,4]triazine-6-carboxamide] the IC50 [1] was under 100 nM and the IC50 [2] was under 100 nM.

In the case of `Cc1cccc(Oc2ccc3nc(Nc4ccc(-c5c(C(=O)NCC(F)(F)F)cn6ncnc(N)c56)cc4)[nH]c3c2F)c1` [Example 42, 4-amino-5-(4-{[7-fluoro-6-(3-methylphenoxy)-1H-benzimidazol-2-yl]amino}phenyl)-N-(2,2,2-trifluoroethyl)pyrrolo[2,1-f][1,2,4]triazine-6-carboxamide], the IC50 [1] is reported as under 100 nM and the IC50 [2] is reported as under 100 nM.

Compound `Cc1ncnc2[nH]c(Nc3ccc(-c4c(C(=O)NCC(F)(F)F)cn5ncnc(N)c45)cc3)nc12` [Example 45, 4-amino-5-{4-[(6-methyl-9H-purin-8-yl)amino]phenyl}-N-(2,2,2-trifluoroethyl)pyrrolo[2,1-f][1,2,4]triazine-6-carboxamide] has an IC50 [1] of under 100 nM and an IC50 [2] of under 100 nM.

Work on `Nc1ncnn2cc(C(=O)NCC(F)(F)F)c(-c3ccc(Nc4nc5ccc(NC6CCCCC6)nc5[nH]4)cc3)c12` [Example 48, 4-amino-5-(4-{[5-(cyclohexylamino)-3H-imidazo[4,5-b]pyridin-2-yl]amino}phenyl)-N-(2,2,2-trifluoroethyl)pyrrolo[2,1-f][1,2,4]triazine-6-carboxamide] yielded an IC50 [1] of under 100 nM and an IC50 [2] of under 100 nM.

`Cc1ccc(Oc2ccc3nc(Nc4ccc(-c5c(C(=O)NCC(F)(F)F)cn6ncnc(N)c56)cc4)[nH]c3n2)cc1C` [Example 49, 4-amino-5-(4-{[5-(3,4-dimethylphenoxy)-3H-imidazo[4,5-b]pyridin-2-yl]amino}phenyl)-N-(2,2,2-trifluoroethyl)pyrrolo[2,1-f][1,2,4]triazine-6-carboxamide] showed an IC50 [1] of under 100 nM and an IC50 [2] of under 100 nM.

In the case of `Nc1ncnn2cc(C(=O)NCC(F)(F)F)c(-c3ccc(Nc4nc5ccc(Sc6cccc(F)c6)nc5[nH]4)cc3)c12` [Example 50, 4-amino-5-[4-({5-[(3-fluorophenyl)thio]-3H-imidazo[4,5-b]pyridin-2-yl}amino)phenyl]-N-(2,2,2-trifluoroethyl)pyrrolo[2,1-f][1,2,4]triazine-6-carboxamide], the IC50 [1] is reported as under 100 nM and the IC50 [2] is reported as under 100 nM.

`CCCNc1ccc2nc(Nc3ccc(-c4c(C(=O)NCC(F)(F)F)cn5ncnc(N)c45)cc3)[nH]c2n1` [Example 55, 4-amino-5-(4-{[5-(propylamino)-3H-imidazo[4,5-b]pyridin-2-yl]amino}phenyl)-N-(2,2,2-trifluoroethyl)pyrrolo[2,1-f][1,2,4]triazine-6-carboxamide] showed an IC50 [1] of under 100 nM and an IC50 [2] of under 100 nM.

With `Nc1ncnn2cc(C(=O)NCC(F)(F)F)c(-c3ccc(Nc4nc5cc6c(cc5[nH]4)OC(F)(F)O6)c(F)c3)c12` [Example 60, 4-amino-5-{4-[(2,2-difluoro-5H-[1,3]dioxolo[4,5-f]benzimidazol-6-yl)amino]-3-fluorophenyl}-N-(2,2,2-trifluoroethyl)pyrrolo[2,1-f][1,2,4]triazine-6-carboxamide] the IC50 [1] was under 100 nM and the IC50 [2] was under 100 nM.

Work on `Nc1ncnn2cc(C(=O)O)c(-c3ccc(Nc4nc5cc(F)cc(F)c5[nH]4)cc3)c12` [Example 71, 4-amino-5-{4-[(5,7-difluoro-1H-benzimidazol-2-yl)amino]phenyl}pyrrolo[2,1-f][1,2,4]triazine-6-carboxylic acid] yielded an IC50 [1] of under 100 nM and an IC50 [2] of under 100 nM.

`CCNC(=O)c1cn2ncnc(N)c2c1-c1ccc(Nc2nc3cc(F)cc(F)c3[nH]2)cc1` [Example 73, 4-amino-5-{4-[(5,7-difluoro-1H-benzimidazol-2-yl)amino]phenyl}-N-ethylpyrrolo[2,1-f][1,2,4]triazine-6-carboxamide] showed an IC50 [1] of under 100 nM and an IC50 [2] of under 100 nM.
